Measured values: ChEMBL document CHEMBL1155237, “Selective inhibitors of the mutant B-Raf pathway: discovery of a potent and orally bioavailable aminoisoquinoline” (J Med Chem, 2009)

How the values were obtained:
[1] = tested on: Tyrosine-protein kinase ABL1 (Homo sapiens), P00519 [F317I]; assay: Inhibition of ABL1 F317I mutant assessed as enzyme activity at 1 uM relative to untreated control; parameters: scale not given: the % may be the effect or the level left
[2] = target: Serine/threonine-protein kinase D1 (Homo sapiens) (UniProt Q15139); assay: Inhibition of PRKD1 assessed as enzyme activity at 1 uM relative to untreated control; parameters: scale not given: the % may be the effect or the level left
[3] = target: Cyclin-dependent kinase 7 (Homo sapiens) (UniProt P50613); assay: Inhibition of CDK7 assessed as enzyme activity at 1 uM relative to untreated control; parameters: scale not given: the % may be the effect or the level left
Cyclin-dependent kinase 7 (Homo sapiens), sequence (P50613 whole entry): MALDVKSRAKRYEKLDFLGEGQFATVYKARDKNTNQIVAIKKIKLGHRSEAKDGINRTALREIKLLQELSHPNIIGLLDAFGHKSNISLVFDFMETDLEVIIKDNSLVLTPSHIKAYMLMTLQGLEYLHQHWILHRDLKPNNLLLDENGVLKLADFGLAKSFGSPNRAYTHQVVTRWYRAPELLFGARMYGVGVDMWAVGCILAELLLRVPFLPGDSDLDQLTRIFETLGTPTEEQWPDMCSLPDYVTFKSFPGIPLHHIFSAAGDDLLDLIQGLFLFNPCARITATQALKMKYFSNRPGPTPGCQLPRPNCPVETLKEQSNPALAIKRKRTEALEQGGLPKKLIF

[4] = target: Homeodomain-interacting protein kinase 1 (Homo sapiens) (UniProt Q86Z02); assay: Inhibition of HIPK1 assessed as enzyme activity at 1 uM relative to untreated control; parameters: scale not given: the % may be the effect or the level left
[5] = target: Serine/threonine-protein kinase 17A (Homo sapiens) (UniProt Q9UEE5); assay: Inhibition of DRAK1 assessed as enzyme activity at 1 uM relative to untreated control; parameters: scale not given: the % may be the effect or the level left
[6] = target: Serine/threonine-protein kinase 10 (Homo sapiens) (UniProt O94804); assay: Inhibition of LOK assessed as enzyme activity at 1 uM relative to untreated control; parameters: scale not given: the % may be the effect or the level left
[7] = target: Serine/threonine-protein kinase pim-3 (Homo sapiens) (UniProt Q86V86); assay: Inhibition of PIM3 assessed as enzyme activity at 1 uM relative to untreated control; parameters: scale not given: the % may be the effect or the level left
[8] = target: cAMP-dependent protein kinase catalytic subunit PRKX (Homo sapiens) (UniProt P51817); assay: Inhibition of PRKX assessed as enzyme activity at 1 uM relative to untreated control; parameters: scale not given: the % may be the effect or the level left
[9] = target: STE20-like serine/threonine-protein kinase (Homo sapiens) (UniProt Q9H2G2); assay: Inhibition of SLK assessed as enzyme activity at 1 uM relative to untreated control; parameters: scale not given: the % may be the effect or the level left
STE20-like serine/threonine-protein kinase (Homo sapiens), sequence (Q9H2G2 whole entry, looked up): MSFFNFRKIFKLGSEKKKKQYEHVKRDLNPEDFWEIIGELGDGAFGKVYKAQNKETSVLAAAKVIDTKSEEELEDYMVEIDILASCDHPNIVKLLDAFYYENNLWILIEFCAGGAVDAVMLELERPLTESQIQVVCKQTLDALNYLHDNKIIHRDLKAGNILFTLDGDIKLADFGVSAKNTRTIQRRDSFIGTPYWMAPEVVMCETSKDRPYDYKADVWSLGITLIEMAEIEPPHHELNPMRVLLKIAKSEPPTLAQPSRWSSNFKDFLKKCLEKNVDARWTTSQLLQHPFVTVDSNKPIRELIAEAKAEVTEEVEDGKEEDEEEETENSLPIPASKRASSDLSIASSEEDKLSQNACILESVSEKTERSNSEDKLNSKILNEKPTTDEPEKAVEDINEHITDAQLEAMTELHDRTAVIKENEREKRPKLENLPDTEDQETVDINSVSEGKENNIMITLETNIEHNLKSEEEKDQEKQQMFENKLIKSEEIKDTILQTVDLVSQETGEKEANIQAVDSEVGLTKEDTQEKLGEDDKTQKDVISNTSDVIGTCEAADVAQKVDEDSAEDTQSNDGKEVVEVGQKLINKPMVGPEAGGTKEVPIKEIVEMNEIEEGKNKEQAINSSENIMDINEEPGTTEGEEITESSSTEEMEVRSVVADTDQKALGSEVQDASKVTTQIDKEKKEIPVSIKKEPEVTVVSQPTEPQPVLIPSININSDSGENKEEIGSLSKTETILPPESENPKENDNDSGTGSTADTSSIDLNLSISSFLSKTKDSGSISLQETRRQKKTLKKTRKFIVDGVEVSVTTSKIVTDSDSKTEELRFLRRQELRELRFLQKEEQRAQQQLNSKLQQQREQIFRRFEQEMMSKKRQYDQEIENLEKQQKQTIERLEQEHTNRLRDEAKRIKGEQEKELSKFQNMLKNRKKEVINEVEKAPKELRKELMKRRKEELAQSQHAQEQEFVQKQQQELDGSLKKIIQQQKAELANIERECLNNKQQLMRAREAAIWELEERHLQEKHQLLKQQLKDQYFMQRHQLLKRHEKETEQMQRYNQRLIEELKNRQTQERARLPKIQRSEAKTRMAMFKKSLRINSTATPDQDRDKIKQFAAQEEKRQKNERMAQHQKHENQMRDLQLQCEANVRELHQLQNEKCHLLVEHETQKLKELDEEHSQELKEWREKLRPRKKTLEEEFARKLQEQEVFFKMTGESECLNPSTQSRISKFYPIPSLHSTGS

[10] = target: Mitogen-activated protein kinase 13 (Homo sapiens) (UniProt O15264); assay: Inhibition of p38delta assessed as enzyme activity at 1 uM relative to untreated control; parameters: scale not given: the % may be the effect or the level left
[11] = target: Tyrosine-protein kinase Fer (Homo sapiens) (UniProt P16591); assay: Inhibition of FER assessed as enzyme activity at 1 uM relative to untreated control; parameters: scale not given: the % may be the effect or the level left
[12] = target: Calcium/calmodulin-dependent protein kinase kinase 1 (Homo sapiens) (UniProt Q8N5S9); assay: Inhibition of CAMKK1 assessed as enzyme activity at 1 uM relative to untreated control; parameters: scale not given: the % may be the effect or the level left
[13] = target: Ephrin type-A receptor 1 (Homo sapiens) (UniProt P21709); assay: Inhibition of EPHA1 assessed as enzyme activity at 1 uM relative to untreated control; parameters: scale not given: the % may be the effect or the level left
[14] = target: Mast/stem cell growth factor receptor Kit (Homo sapiens) (UniProt P10721); assay: Inhibition of KIT assessed as enzyme activity at 1 uM relative to untreated control; parameters: scale not given: the % may be the effect or the level left
[15] = target: Tyrosine-protein kinase Blk (Homo sapiens) (UniProt P51451); assay: Inhibition of BLK assessed as enzyme activity at 1 uM relative to untreated control; parameters: scale not given: the % may be the effect or the level left
[16] = target: Activin receptor type-1 (Homo sapiens) (UniProt Q04771); assay: Inhibition of ACVR1 assessed as enzyme activity at 1 uM relative to untreated control; parameters: scale not given: the % may be the effect or the level left
[17] = Elimination half life in CD1 mouse; format: ADME, organism-based; conditions: in vivo, read-out: beta t1/2 (converted)
[18] = target: Dual specificity tyrosine-phosphorylation-regulated kinase 1B (Homo sapiens) (UniProt Q9Y463); assay: Inhibition of DYRK1B assessed as enzyme activity at 1 uM relative to untreated control; parameters: scale not given: the % may be the effect or the level left
Dual specificity tyrosine-phosphorylation-regulated kinase 1B (Homo sapiens), sequence (Q9Y463 whole entry, looked up, canonical isoform): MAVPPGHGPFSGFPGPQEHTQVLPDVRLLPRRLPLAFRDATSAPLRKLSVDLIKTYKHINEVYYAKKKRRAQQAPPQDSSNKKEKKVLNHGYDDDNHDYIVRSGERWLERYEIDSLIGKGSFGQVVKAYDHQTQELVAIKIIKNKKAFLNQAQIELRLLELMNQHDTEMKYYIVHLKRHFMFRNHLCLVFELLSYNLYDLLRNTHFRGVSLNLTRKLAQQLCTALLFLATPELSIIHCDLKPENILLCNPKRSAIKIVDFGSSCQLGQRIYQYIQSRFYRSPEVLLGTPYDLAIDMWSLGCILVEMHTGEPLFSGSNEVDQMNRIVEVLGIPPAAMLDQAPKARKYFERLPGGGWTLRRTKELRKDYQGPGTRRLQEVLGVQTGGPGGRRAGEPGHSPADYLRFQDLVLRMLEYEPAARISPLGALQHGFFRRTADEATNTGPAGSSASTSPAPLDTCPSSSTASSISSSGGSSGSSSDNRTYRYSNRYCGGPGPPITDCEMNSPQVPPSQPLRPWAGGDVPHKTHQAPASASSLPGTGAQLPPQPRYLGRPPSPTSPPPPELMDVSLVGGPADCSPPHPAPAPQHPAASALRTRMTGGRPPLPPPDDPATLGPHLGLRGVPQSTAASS

[19] = target: Phosphatidylinositol 4,5-bisphosphate 3-kinase catalytic subunit delta isoform (Homo sapiens) (UniProt O00329); assay: Inhibition of PIK3CD assessed as enzyme activity at 1 uM relative to untreated control; parameters: scale not given: the % may be the effect or the level left
[20] = target: BMP-2-inducible protein kinase (Homo sapiens) (UniProt Q9NSY1); assay: Inhibition of BIKE assessed as enzyme activity at 1 uM relative to untreated control; parameters: scale not given: the % may be the effect or the level left
BMP-2-inducible protein kinase (Homo sapiens), sequence (Q9NSY1 whole entry, looked up): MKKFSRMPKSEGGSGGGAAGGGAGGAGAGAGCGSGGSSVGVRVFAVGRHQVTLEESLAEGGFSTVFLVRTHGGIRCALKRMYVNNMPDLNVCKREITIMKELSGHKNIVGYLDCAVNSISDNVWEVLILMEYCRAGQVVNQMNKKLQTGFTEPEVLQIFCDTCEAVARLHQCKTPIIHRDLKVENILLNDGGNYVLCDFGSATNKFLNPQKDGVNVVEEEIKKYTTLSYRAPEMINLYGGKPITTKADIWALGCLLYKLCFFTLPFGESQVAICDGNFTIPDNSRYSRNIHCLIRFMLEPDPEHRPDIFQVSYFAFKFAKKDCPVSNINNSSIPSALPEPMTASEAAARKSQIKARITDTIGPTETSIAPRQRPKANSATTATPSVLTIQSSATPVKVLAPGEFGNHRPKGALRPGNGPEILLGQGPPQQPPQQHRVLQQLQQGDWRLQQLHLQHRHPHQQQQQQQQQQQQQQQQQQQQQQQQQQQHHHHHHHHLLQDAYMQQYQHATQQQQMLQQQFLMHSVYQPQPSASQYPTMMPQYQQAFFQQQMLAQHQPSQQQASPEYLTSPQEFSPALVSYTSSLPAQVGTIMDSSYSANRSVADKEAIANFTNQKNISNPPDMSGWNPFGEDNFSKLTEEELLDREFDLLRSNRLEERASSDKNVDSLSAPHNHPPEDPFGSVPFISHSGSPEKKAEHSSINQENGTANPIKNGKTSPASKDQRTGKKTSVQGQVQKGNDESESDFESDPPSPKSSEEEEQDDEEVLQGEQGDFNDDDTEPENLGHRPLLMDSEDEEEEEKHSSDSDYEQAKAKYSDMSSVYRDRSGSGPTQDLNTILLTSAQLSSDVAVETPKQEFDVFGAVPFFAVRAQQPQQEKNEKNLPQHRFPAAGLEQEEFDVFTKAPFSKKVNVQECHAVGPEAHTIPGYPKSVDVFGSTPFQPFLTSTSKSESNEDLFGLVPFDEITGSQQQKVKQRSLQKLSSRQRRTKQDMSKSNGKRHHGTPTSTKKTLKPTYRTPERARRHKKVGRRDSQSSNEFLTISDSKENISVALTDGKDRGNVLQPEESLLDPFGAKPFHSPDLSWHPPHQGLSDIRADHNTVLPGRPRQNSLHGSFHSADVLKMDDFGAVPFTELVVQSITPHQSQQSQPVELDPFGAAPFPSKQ

[21] = target: Dual specificity protein kinase TTK (Homo sapiens) (UniProt P33981); assay: Inhibition of TTK assessed as enzyme activity at 1 uM relative to untreated control; parameters: scale not given: the % may be the effect or the level left
[22] = target: MAP kinase-interacting serine/threonine-protein kinase 1 (Homo sapiens) (UniProt Q9BUB5); assay: Inhibition of MKNK1 assessed as enzyme activity at 1 uM relative to untreated control; parameters: scale not given: the % may be the effect or the level left
[23] = target: Mitogen-activated protein kinase kinase kinase 10 (Homo sapiens) (UniProt Q02779); assay: Inhibition of MLK2 assessed as enzyme activity at 1 uM relative to untreated control; parameters: scale not given: the % may be the effect or the level left
Mitogen-activated protein kinase kinase kinase 10 (Homo sapiens), sequence (Q02779 whole entry, looked up): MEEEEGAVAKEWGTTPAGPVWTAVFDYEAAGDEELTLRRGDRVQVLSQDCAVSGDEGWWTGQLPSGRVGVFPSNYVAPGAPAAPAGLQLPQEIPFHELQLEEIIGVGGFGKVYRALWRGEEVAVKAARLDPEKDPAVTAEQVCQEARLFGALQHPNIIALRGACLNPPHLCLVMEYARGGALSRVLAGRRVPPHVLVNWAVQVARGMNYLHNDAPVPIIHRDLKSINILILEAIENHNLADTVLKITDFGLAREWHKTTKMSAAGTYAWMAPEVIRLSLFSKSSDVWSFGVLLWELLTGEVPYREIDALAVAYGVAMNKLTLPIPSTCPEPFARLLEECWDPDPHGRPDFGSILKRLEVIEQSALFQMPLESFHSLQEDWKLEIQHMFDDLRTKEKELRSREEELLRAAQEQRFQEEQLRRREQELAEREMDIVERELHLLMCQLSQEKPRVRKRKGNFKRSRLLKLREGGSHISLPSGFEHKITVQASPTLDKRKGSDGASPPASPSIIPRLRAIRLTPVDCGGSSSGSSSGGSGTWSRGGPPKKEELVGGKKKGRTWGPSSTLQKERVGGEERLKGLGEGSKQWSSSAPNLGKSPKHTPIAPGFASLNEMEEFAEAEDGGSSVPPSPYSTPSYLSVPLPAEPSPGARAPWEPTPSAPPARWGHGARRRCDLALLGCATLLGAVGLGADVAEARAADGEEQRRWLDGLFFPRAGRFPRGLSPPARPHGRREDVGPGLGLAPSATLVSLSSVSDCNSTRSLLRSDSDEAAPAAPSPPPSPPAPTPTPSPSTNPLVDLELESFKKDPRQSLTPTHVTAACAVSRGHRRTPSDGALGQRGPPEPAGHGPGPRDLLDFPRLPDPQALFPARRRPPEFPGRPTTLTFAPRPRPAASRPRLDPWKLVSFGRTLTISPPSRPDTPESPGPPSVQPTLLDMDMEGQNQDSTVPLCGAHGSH

[24] = target: Tyrosine-protein kinase ZAP-70 (Homo sapiens) (UniProt P43403); assay: Inhibition of ZAP70 assessed as enzyme activity at 1 uM relative to untreated control; parameters: scale not given: the % may be the effect or the level left
[25] = target: Serine/threonine-protein kinase RIO2 (Homo sapiens) (UniProt Q9BVS4); assay: Inhibition of RIOK2 assessed as enzyme activity at 1 uM relative to untreated control; parameters: scale not given: the % may be the effect or the level left
[26] = target: Tyrosine-protein kinase Tec (Homo sapiens) (UniProt P42680); assay: Inhibition of TEC assessed as enzyme activity at 1 uM relative to untreated control; parameters: scale not given: the % may be the effect or the level left
Tyrosine-protein kinase Tec (Homo sapiens), sequence (P42680 whole entry): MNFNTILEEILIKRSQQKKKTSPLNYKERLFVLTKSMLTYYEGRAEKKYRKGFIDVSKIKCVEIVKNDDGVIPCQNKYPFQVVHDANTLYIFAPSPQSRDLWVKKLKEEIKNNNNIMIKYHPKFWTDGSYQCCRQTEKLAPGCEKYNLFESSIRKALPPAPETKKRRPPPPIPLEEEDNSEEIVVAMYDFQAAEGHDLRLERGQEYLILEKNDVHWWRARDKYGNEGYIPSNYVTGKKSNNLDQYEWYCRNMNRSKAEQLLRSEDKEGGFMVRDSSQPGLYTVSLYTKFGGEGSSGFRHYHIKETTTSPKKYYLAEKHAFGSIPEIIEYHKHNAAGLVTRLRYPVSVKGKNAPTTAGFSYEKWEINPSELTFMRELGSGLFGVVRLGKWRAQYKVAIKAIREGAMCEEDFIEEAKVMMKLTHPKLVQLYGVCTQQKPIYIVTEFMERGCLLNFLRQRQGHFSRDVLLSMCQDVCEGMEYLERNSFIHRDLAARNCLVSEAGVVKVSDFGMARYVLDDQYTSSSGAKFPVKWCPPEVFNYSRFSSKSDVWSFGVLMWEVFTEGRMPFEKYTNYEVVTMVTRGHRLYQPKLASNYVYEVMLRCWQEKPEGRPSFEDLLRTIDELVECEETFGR

[27] = target: Serine/threonine-protein kinase 38-like (Homo sapiens) (UniProt Q9Y2H1); assay: Inhibition of NDR2 assessed as enzyme activity at 1 uM relative to untreated control; parameters: scale not given: the % may be the effect or the level left
[28] = target: Ribosomal protein S6 kinase alpha-4 (Homo sapiens) (UniProt O75676); assay: Inhibition of RPS6KA4 kinase domain 1 assessed as enzyme activity at 1 uM relative to untreated control; parameters: scale not given: the % may be the effect or the level left
[29] = target: Testis-specific serine/threonine-protein kinase 1 (Homo sapiens) (UniProt Q9BXA7); assay: Inhibition of TSSK1 assessed as enzyme activity at 1 uM relative to untreated control; parameters: scale not given: the % may be the effect or the level left
[30] = target: Uncharacterized serine/threonine-protein kinase SBK3 (Homo sapiens) (UniProt P0C264); assay: Inhibition of SgK110 assessed as enzyme activity at 1 uM relative to untreated control; parameters: scale not given: the % may be the effect or the level left
[31] = AUC (0 to 24 hrs) in human A375 SQ2 cells xenografted po dosed CD1 mouse administered once daily for 14 days; format: ADME, organism-based, A-375; parameters: time < 24 hr, route oral; conditions: in vivo
[32] = target: Serine/threonine-protein kinase 17B (Homo sapiens) (UniProt O94768); assay: Inhibition of DRAK2 assessed as enzyme activity at 1 uM relative to untreated control; parameters: scale not given: the % may be the effect or the level left
[33] = target: TRAF2 and NCK-interacting protein kinase (Homo sapiens) (UniProt Q9UKE5); assay: Inhibition of TNIK assessed as enzyme activity at 1 uM relative to untreated control; parameters: scale not given: the % may be the effect or the level left
[34] = target: Serine/threonine-protein kinase STK11 (Homo sapiens) (UniProt Q15831); assay: Inhibition of LKB1 assessed as enzyme activity at 1 uM relative to untreated control; parameters: scale not given: the % may be the effect or the level left
[35] = target: Dual specificity testis-specific protein kinase 1 (Homo sapiens) (UniProt Q15569); assay: Inhibition of TESK1 assessed as enzyme activity at 1 uM relative to untreated control; parameters: scale not given: the % may be the effect or the level left
[36] = target: Mitogen-activated protein kinase 15 (Homo sapiens) (UniProt Q8TD08); assay: Inhibition of ERK8 assessed as enzyme activity at 1 uM relative to untreated control; parameters: scale not given: the % may be the effect or the level left
[37] = target: Insulin receptor (Homo sapiens) (UniProt P06213); assay: Inhibition of INSR assessed as enzyme activity at 1 uM relative to untreated control; parameters: scale not given: the % may be the effect or the level left
[38] = target: Serine/threonine-protein kinase Nek7 (Homo sapiens) (UniProt Q8TDX7); assay: Inhibition of NEK7 assessed as enzyme activity at 1 uM relative to untreated control; parameters: scale not given: the % may be the effect or the level left

Cc1ccc2c(Nc3ccc(Cl)cc3)nccc2c1Nc1ncccc1-c1ncnc2[nH]cnc12.Cl.Cl.Cl
Activity [1]: 86% | Activity [2]: 100% | Activity [3]: 100% | Activity [4]: 99% | Activity [5]: 100% | Activity [6]: 0% | Activity [7]: 100% | Activity [8]: 65% | Activity [9]: 40% | Activity [10]: 100% | Activity [11]: 78% | Activity [12]: 96% | Activity [13]: 4.6% | Activity [14]: 28% | Activity [15]: 75% | Activity [16]: 100% | half-life [17]: 3.3 h | Activity [18]: 100% | Activity [19]: 100% | Activity [20]: 70% | Activity [21]: 100% | Activity [22]: 100% | Activity [23]: 99% | Activity [24]: 100% | Activity [25]: 100% | Activity [26]: 100% | Activity [27]: 100% | Activity [28]: 100% | Activity [29]: 71% | Activity [30]: 78% | AUC at 24 h [31]: 2730 ng·h/mL | Activity [32]: 96% | Activity [33]: 100% | Activity [34]: 100% | Activity [35]: 21% | Activity [36]: 98% | Activity [37]: 86% | Activity [38]: 88%
